Experimental findings from patent US20260345596A1, “TREATMENT OF LOCALLY ADVANCED OR METASTATIC UROTHELIAL CARCINOMA WITH ERDAFINITIB” (priority 2023, published 2026) are described below.

One data set has as its system QTc interval. Description: Cardiac electrophysiology: QTc interval in dose escalation and dose expansion study (187 patients). The following applies: large effect = ≥20 ms.
A short description of another data set: clinical. The conditions noted are these: human, in vivo, po.
Data set [1] concerns FGFR phosphorylation and signaling. In words: FGFR phosphorylation and signaling in cell lines expressing FGFR genetic alterations. It counts as cell-based. The following applies: cell lines with FGFR genetic alterations.
Data set [2] concerns cell lines expressing FGFR genetic alterations. In words: Cell viability of cell lines expressing FGFR genetic alterations. The format is cell-based. The following applies: cell lines with FGFR genetic alterations.
Data set [3] in a line: Excretion after a single oral dose of radiolabeled erdafitinib. The conditions noted are these: for dose excreted: human, in vivo, po.

Usually CL/F stands for the apparent clearance, not corrected for the fraction that reaches the circulation. One may read the Vd/F as the apparent distribution volume after extravascular dosing. On to `COc1cc(OC)cc(N(CCNC(C)C)c2ccc3ncc(-c4cnn(C)c4)nc3c2)c1` [Erdafitinib, N-(3,5-dimethoxyphenyl)-N′-(1-methylethyl)-N-[3-(1-methyl-1H-pyrazol-4-yl)quinoxalin-6-yl]ethane-1,2-diamine], for which the “Effect on QTc interval” value with QTc interval was “no large effect (i.e., ≥20 ms) on the QTc interval”. In the data set “clinical”, the CL/F was 6.03 mL/min and the Vd/F is 29 L. For the same compound, the “FGFR phosphorylation and signaling” value in data set [1] was “inhibited FGFR phosphorylation and signaling”. Also, in data set [2], the Cell viability entry was “decreased cell viability in cell lines expressing FGFR genetic alterations, including point mutations, amplifications, and fusions”. Besides, in data set [3], the “Dose recovered in feces” value is “approximately 69%” and the “Dose recovered in urine” value was determined as 19%. Further, the dose excreted in data set [3] (Dose recovered in feces as unchanged) was found to be 19%. In data set [3] (Dose recovered in urine as unchanged), the dose excreted was found to be 13%.
